Here are results for 16 molecules from patent US12433952B2, “Antibody-drug conjugates targeting folate receptor alpha and methods of use” (ZYMEWORKS BC INC., priority 2022, dated 2025).

Common to all, as to assay: In vitro cytotoxicity of camptothecin analogues (CellTiter-Glo)
Holding throughout (type): cell-based

For one assay, the system named is Calu-3 (lung cancer). Conditions: Homo sapiens, Calu-3, 96 h, read-out: pIC50 Calu-3 (converted). The method, then: (§1) Cytotoxicity of the camptothecin analogues was assessed in vitro as follows.
(§2) In vitro potency was assessed on multiple cancer cell lines: SK-BR-3 (breast cancer), SKOV-3 (ovarian cancer), Calu-3 (lung cancer), ZR-75-1 (breast cancer) and MDA-MB-468 (breast cancer). Serial dilutions of camptothecin analogues were prepared in RPMI 1640+10% FBS, and 20 μL of each dilution was added to 384-well plates. Cells cultured in log-phase growth were detached by brief incubation in 0.05% Trypsin and resuspended in respective culturing media at 20,000 cells/mL (with the exception of ZR-75 cells, which were resuspended at 10,000 cells/mL). 50 μL of cell suspension was then added to the plates containing test articles. Cells were incubated with test articles for 4 d at 37° C. (with the exception of ZR-75 cells, which were incubated for 5 d). Growth inhibition was assessed by CellTiter-Glo® (Promega Corporation, Madison, WI) and luminescence was measured on a plate reader. IC50 values were determined by GraphPad Prism (GraphPad Software, San Diego CA).

Assay [1] deals with MDA-MB-468 (breast cancer). Conditions: Homo sapiens, MDA-MB-468, 96 h, read-out: pIC50 MDA-MB-468 (converted). As for the experimental part: as §1, §2
A further assay relates to SK-BR-3 (breast cancer). Conditions: Homo sapiens, SK-BR-3, 96 h, read-out: pIC50 SKBR-3 (converted). The method, then:
as §1, §2

A further assay concerns ZR-75-1 (breast cancer). Conditions: Homo sapiens, ZR-75-1, 120 h, read-out: pIC50 ZR-75 (converted). As for the experimental part:
as §1, §2

The next assay has as its system SKOV-3 (ovarian cancer). Conditions: Homo sapiens, SK-OV-3, 96 h, read-out: pIC50 SKOV-3 (converted). The method, then:
as §1, §2

The structures appear in SMILES notation. Read-outs that look alike come from different tables or passages of the source.

Take `CC[C@@]1(O)C(=O)OCc2c1cc1n(c2=O)Cc2c-1nc1cc(F)c(OC)cc1c2CNC(=O)NCCO` [Compound 137, (S)-1-((4-ethyl-8-fluoro-4-hydroxy-9-methoxy-3,14-dioxo-3,4,12,14-tetrahydro-1H-pyrano[3′,4′:6,7]indolizino[1,2-b]quinolin-11-yl)methyl)-3-(2-hydroxyethyl)urea]: the IC50 in the assay on Calu-3 (lung cancer) (4 d incubation) was 63.1 nM; in assay [1] (4 d incubation) it was 28.2 nM; in the assay with SK-BR-3 (breast cancer) (4 d incubation) it was 17 nM; in the assay on ZR-75-1 (breast cancer) (5 d incubation) it was 18.6 nM.

As for `CC[C@@]1(O)C(=O)OCc2c1cc1n(c2=O)Cc2c-1nc1cc(F)c(C)cc1c2CN1CC(F)(CO)C1` [Compound 118, (S)-4-ethyl-8-fluoro-11-((3-fluoro-3-(hydroxymethyl)azetidin-1-yl)methyl)-4-hydroxy-9-methyl-1,12-dihydro-14H-pyrano[3′,4′:6,7]indolizino[1,2-b]quinoline-3,14(4H)-dione], the IC50 in the assay with Calu-3 (lung cancer) (4 d incubation) was 0.933 nM; in assay [1] (4 d incubation), 1.86 nM; in the assay on SK-BR-3 (breast cancer) (4 d incubation), 1.51 nM; with SKOV-3 (ovarian cancer) (4 d incubation) it was 1.45 nM.

For `CC[C@@]1(O)C(=O)OCc2c1cc1n(c2=O)Cc2c-1nc1cc(F)c(C)cc1c2CNS(=O)(=O)Cc1ccc([N+](=O)[O-])cc1` [Compound 124, (S)—N-((4-ethyl-8-fluoro-4-hydroxy-9-methyl-3,14-dioxo-3,4,12,14-tetrahydro-1H-pyrano[3′,4′:6,7]indolizino[1,2-b]quinolin-11-yl)methyl)-1-(4-nitrophenyl) methanesulfonamide], the IC50 in the assay with Calu-3 (lung cancer) (4 d incubation) is 1.7 nM; in assay [1] (4 d incubation) it was 3.47 nM; in the assay on SK-BR-3 (breast cancer) (4 d incubation), 1.2 nM; with ZR-75-1 (breast cancer) (5 d incubation) it was 2.29 nM.

As for `CC[C@@]1(O)C(=O)OCc2c1cc1n(c2=O)Cc2c-1nc1cc(F)c(N)cc1c2CN1CCN(S(=O)(=O)c2ccccc2)CC1` [Compound 153, (S)-9-amino-4-ethyl-8-fluoro-4-hydroxy-11-((4-(phenylsulfonyl)piperazin-1-yl)methyl)-1,12-dihydro-14H-pyrano[3′,4′:6,7]indolizino[1,2-b]quinoline-3,14(4H)-dione], the IC50 with Calu-3 (lung cancer) (4 d incubation) is 0.115 nM; with SK-BR-3 (breast cancer) (4 d incubation), 0.513 nM; in the assay with SKOV-3 (ovarian cancer) (4 d incubation), 0.933 nM.

On to `CC[C@@]1(O)C(=O)OCc2c1cc1n(c2=O)Cc2c-1nc1cc(F)c(C)cc1c2CN1CCC(F)(F)C(CO)C1` (stereo partly drawn) [Compound 120, (4S)-11-((4,4-difluoro-3-(hydroxymethyl)piperidin-1-yl)methyl)-4-ethyl-8-fluoro-4-hydroxy-9-methyl-1,12-dihydro-14H-pyrano[3′,4′:6,7]indolizino[1,2-b]quinoline-3,14(4H)-dione], for which the IC50 is 0.1 nM in the assay with Calu-3 (lung cancer) (4 d incubation), 0.191 nM in assay [1] (4 d incubation), 1.1 nM with SK-BR-3 (breast cancer) (4 d incubation) and 0.251 nM in the assay on SKOV-3 (ovarian cancer) (4 d incubation).

As for `CC[C@@]1(O)C(=O)OCc2c1cc1n(c2=O)Cc2c-1nc1cc(F)c(C)cc1c2CN1CC2CC1(CO)CO2` (stereo partly drawn) [Compound 115, (4S)-4-ethyl-8-fluoro-4-hydroxy-11-((4-(hydroxymethyl)-2-oxa-5-azabicyclo[2.2.1]heptan-5-yl)methyl)-9-methyl-1,12-dihydro-14H-pyrano[3′,4′:6,7]indolizino[1,2-b]quinoline-3,14(4H)-dione], the IC50 with Calu-3 (lung cancer) (4 d incubation) is 1.29 nM; in assay [1] (4 d incubation) it was 4.17 nM; with SK-BR-3 (breast cancer) (4 d incubation), 2.57 nM; in the assay with SKOV-3 (ovarian cancer) (4 d incubation), 3.8 nM.

Consider `CC[C@@]1(O)C(=O)OCc2c1cc1n(c2=O)Cc2c-1nc1cc(F)c(OC)cc1c2CNC(=O)NCc1ccc(N)cc1` [Compound 135, (S)-1-(4-aminobenzyl)-3-((4-ethyl-8-fluoro-4-hydroxy-9-methoxy-3,14-dioxo-3,4,12,14-tetrahydro-1H-pyrano[3′,4′:6,7]indolizino[1,2-b]quinolin-11-yl)methyl)urea], for which the figures for the IC50 (in assay [1]; in the assay with SK-BR-3 (breast cancer); in the assay on ZR-75-1 (breast cancer)) were 10.7 nM, 12.3 nM and 13.2 nM, respectively.

For the molecule `CC[C@@]1(O)C(=O)OCc2c1cc1n(c2=O)Cc2c-1nc1cc(F)c(N)cc1c2CN1CCCCC1` [Compound 148, (S)-9-amino-4-ethyl-8-fluoro-4-hydroxy-11-(piperidin-1-ylmethyl)-1,12-dihydro-14H-pyrano[3′,4′:6,7]indolizino[1,2-b]quinoline-3,14(4H)-dione], the IC50 was 0.204 nM in the assay on Calu-3 (lung cancer) (4 d incubation), 0.204 nM in assay [1] (4 d incubation), 0.324 nM in the assay on SK-BR-3 (breast cancer) (4 d incubation) and 0.219 nM with ZR-75-1 (breast cancer) (5 d incubation).

Regarding `CC[C@@]1(O)C(=O)OCc2c1cc1n(c2=O)Cc2c-1nc1cc(F)c(C)cc1c2CN1C2CCC1(CO)CC2` [Compound 121, (S)-4-ethyl-8-fluoro-4-hydroxy-11-((1-(hydroxymethyl)-7-azabicyclo[2.2.1]heptan-7-yl)methyl)-9-methyl-1,12-dihydro-14H-pyrano[3′,4′:6,7]indolizino[1,2-b]quinoline-3,14(4H)-dione], the IC50 is 0.145 nM in the assay on Calu-3 (lung cancer), 0.269 nM in assay [1], 0.148 nM in the assay with SK-BR-3 (breast cancer) and 0.195 nM in the assay on SKOV-3 (ovarian cancer).

As for `CC[C@@]1(O)C(=O)OCc2c1cc1n(c2=O)Cc2c-1nc1cc(F)c(C)cc1c2CN1CCS(=O)(=O)CC1CO` (stereo partly drawn) [Compound 116, (4S)-4-ethyl-8-fluoro-4-hydroxy-11-((3-(hydroxymethyl)-1,1-dioxidothiomorpholino)methyl)-9-methyl-1,12-dihydro-14H-pyrano[3′,4′:6,7]indolizino[1,2-b]quinoline-3,14(4H)-dione], the IC50 was 0.794 nM in the assay on Calu-3 (lung cancer) (4 d incubation), 9.33 nM in assay [1] (4 d incubation), 7.08 nM in the assay on SK-BR-3 (breast cancer) (4 d incubation) and 12.6 nM in the assay with SKOV-3 (ovarian cancer) (4 d incubation).

Consider `CC[C@@]1(O)C(=O)OCc2c1cc1n(c2=O)Cc2c-1nc1cc(F)c(N)cc1c2CNC(C)=O` [Compound 147, (S)—N-((9-amino-4-ethyl-8-fluoro-4-hydroxy-3,14-dioxo-3,4,12,14-tetrahydro-1H-pyrano[3′,4′:6,7]indolizino[1,2-b]quinolin-11-yl)methyl)acetamide], for which the IC50 was 21.4 nM in the assay with Calu-3 (lung cancer) (4 d incubation), 21.4 nM in assay [1] (4 d incubation), 5.13 nM with SK-BR-3 (breast cancer) (4 d incubation) and 43.7 nM with SKOV-3 (ovarian cancer) (4 d incubation).

Regarding `CC[C@@]1(O)C(=O)OCc2c1cc1n(c2=O)Cc2c-1nc1cc(F)c(C)cc1c2CN1CC(CO)C1` [Compound 119, (S)-4-ethyl-8-fluoro-4-hydroxy-11-((3-(hydroxymethyl)azetidin-1-yl)methyl)-9-methyl-1,12-dihydro-14H-pyrano[3′,4′:6,7]indolizino[1,2-b]quinoline-3,14(4H)-dione], the IC50 in the assay on Calu-3 (lung cancer) (4 d incubation) was 1.17 nM; in assay [1] (4 d incubation) it was 2.75 nM; with SK-BR-3 (breast cancer) (4 d incubation), 4.17 nM; with SKOV-3 (ovarian cancer) (4 d incubation) it was 3.72 nM.

`CC[C@@]1(O)C(=O)OCc2c1cc1n(c2=O)Cc2c-1nc1cc(F)c(OC)cc1c2CNS(=O)(=O)CCO` [Compound 130, (S)—N-((4-ethyl-8-fluoro-4-hydroxy-9-methoxy-3,14-dioxo-3,4,12,14-tetrahydro-1H-pyrano[3′,4′:6,7]indolizino[1,2-b]quinolin-11-yl)methyl)-2-hydroxyethane-1-sulfonamide]: the IC50 in the assay with Calu-3 (lung cancer) (4 d incubation) is 1.66 nM; in assay [1] (4 d incubation), 6.46 nM; with SK-BR-3 (breast cancer) (4 d incubation), 14.8 nM; in the assay on SKOV-3 (ovarian cancer) (4 d incubation) it was 24 nM.

On to `CC[C@@]1(O)C(=O)OCc2c1cc1n(c2=O)Cc2c-1nc1cc(F)c(C)cc1c2CN1CC2CC(C1)C2O` (stereo partly drawn) [Compound 117, (4S)-4-ethyl-8-fluoro-4-hydroxy-11-((6-hydroxy-3-azabicyclo[3.1.1]heptan-3-yl)methyl)-9-methyl-1,12-dihydro-14H-pyrano[3′,4′:6,7]indolizino[1,2-b]quinoline-3,14(4H)-dione], for which the IC50 was 0.162 nM with Calu-3 (lung cancer) (4 d incubation), 0.468 nM in assay [1] (4 d incubation), 0.0955 nM in the assay on SK-BR-3 (breast cancer) (4 d incubation) and 0.17 nM in the assay with SKOV-3 (ovarian cancer) (4 d incubation).

On to `CC[C@@]1(O)C(=O)OCc2c1cc1n(c2=O)Cc2c-1nc1cc(F)c(C)cc1c2CN1CCSCC1CO` (stereo partly drawn) [Compound 114, (4S)-4-ethyl-8-fluoro-4-hydroxy-11-((3-(hydroxymethyl)thiomorpholino)methyl)-9-methyl-1,12-dihydro-14H-pyrano[3′,4′:6,7]indolizino[1,2-b]quinoline-3,14(4H)-dione], for which the IC50 with Calu-3 (lung cancer) is 0.0933 nM; in assay [1] it was 0.417 nM; with SK-BR-3 (breast cancer) it was 0.107 nM; in the assay with SKOV-3 (ovarian cancer), 0.178 nM.

For `CC[C@@]1(O)C(=O)OCc2c1cc1n(c2=O)Cc2c-1nc1cc(F)c(N)cc1c2CN=[N+]=[N-]` [Compound 152, (S)-9-amino-11-(azidomethyl)-4-ethyl-8-fluoro-4-hydroxy-1,12-dihydro-14H-pyrano[3′,4′:6,7]indolizino[1,2-b]quinoline-3,14(4H)-dione], the IC50 is 1.48 nM in the assay with Calu-3 (lung cancer), 5.01 nM in assay [1], 3.24 nM with SK-BR-3 (breast cancer) and 2.88 nM in the assay on SKOV-3 (ovarian cancer).
